In patent publication US12208090B2, “Compounds for use in treating depression and migraine” (Khondrion IP B.V., priority 2017, dated 2025):

Tests used:
[1] = tested on: patients carrying the mutation m.3243A>G in the mitochondrial DNA; experiment: Khenergy phase 2 trial: Beck Depression Inventory-II (BDI); assay type: in vivo, human
Description: (§1) The Khenergy trial (clinicaltrial.gov identifier NCT02909400) was a double blind, randomized, placebo-controlled, single-centre, two-way cross-over trial. Twenty patients, with a confirmed mitochondrial DNA tRNALeu(UUR) m.3243A>G mutation and with clinical signs of mitochondrial disease, were randomized over 2 groups (active or placebo first). After a screening period and a training session, each group had 2 dosing periods of 28 days, with a washout period of at least 28 days in between. On these occasions (i.e. during the dosing periods), patients received 100 mg KH176 twice daily (treatment A) or a matching placebo (treatment B) twice daily for 28 days. Clinical assessments were performed once in a training session prior to baseline, at baseline and in week 4 post dosing during each treatment phase (A and B). Testing conditions and circumstances, with respect to timing of the assessments, hospitalization and meals, were standardized for each assessment period. Furthermore, assessments of biomarkers for mitochondrial functioning, pharmacokinetics and specific safety assessments were performed weekly. Trial results have been published (Janssen, Koene, De Laat, et al., 2018)
The effect of KH176 on depression symptoms in patients carrying the mutation m.3243A>G in the mitochondrial DNA was evaluated with the Beck Depression Inventory-II (BDI) score and Hospital Anxiety and Depression Scale (HADS) during the Khenergy phase 2 clinical trial (clinicaltrial.gov identifier NCT02909400). […] This observation was supported by a positive trend in the Hospital Anxiety and Depression Scale (effect size, −1.9 (95% Cl, −3.6 to −0.2); P=0.03).

[2] = tested on: patients who suffer from chronic migraine; experiment: Khenergy phase 2 trial: patient-reported migraine and headache; assay type: in vivo, human
Description: as §1
Two patients from the Khenergy Phase 2 clinical trial have spontaneously reported a decreased frequency of migraine event during the treatment period with KH176 (reported before unblinding of the study). A third patient retrospectively reported that they had more migraines during the placebo treatment period over the KH176 treatment period.

[3] = 100 mg KH176 twice daily for 28 days vs matching placebo, cross-over

Cc1c(C)c2c(c(C)c1O)CC[C@@](C)(C(=O)N[C@@H]1CCCNC1)O2 [KH176]
Beck Depression Affective Subscale, effect size, comparison KH176-Placebo [1, 3]: −1.1 | Beck Depression Inventory total score, effect size, comparison KH176-Placebo [1, 3]: −2.9 | effect on depression symptoms (in words) ([1]; KHENERGY trial, mitochondrial disease patients): significantly reduce depression symptoms | effect on migraine events (in words) ([2]; KHENERGY trial, patients who previously chronically suffered from migraine, KH176 treatment period): reduction of the intensity and number of migraine events | headache during the 4 weeks of KH176 ([2]; Patient A, before: severe headaches every day, migraine 2 times a week): NO headache | patients with a positive effect on migraine ([2]; patients of the trial who suffer from chronic migraine): 3 out of 3
